Assay results published in BindingDB's records for doi:10.1021/bi035098j (Merck Research Laboratories, 2003).

What was measured:
[1] = molecular target: T1, Tyrosine-protein phosphatase non-receptor type 2 (Homo sapiens, UniProt P17706); experiment: PTP1B and TCPTP Inhibition Assay; settings: pH 6.3; 22 °C
T1 sequence (P17706 whole entry): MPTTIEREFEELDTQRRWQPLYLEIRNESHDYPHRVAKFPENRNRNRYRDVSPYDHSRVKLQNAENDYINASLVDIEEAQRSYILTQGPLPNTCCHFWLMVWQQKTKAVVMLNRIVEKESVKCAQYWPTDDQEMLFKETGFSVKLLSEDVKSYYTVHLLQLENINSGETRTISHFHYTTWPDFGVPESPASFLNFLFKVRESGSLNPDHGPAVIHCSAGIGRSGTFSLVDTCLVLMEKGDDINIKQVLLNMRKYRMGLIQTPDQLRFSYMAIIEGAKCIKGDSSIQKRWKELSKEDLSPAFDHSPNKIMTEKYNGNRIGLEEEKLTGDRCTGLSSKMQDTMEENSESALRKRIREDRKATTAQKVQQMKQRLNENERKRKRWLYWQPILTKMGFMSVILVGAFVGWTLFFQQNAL

[2] = molecular target: T2, Tyrosine-protein phosphatase non-receptor type 1 [1-298] (Homo sapiens, UniProt P18031); experiment: PTP1B and TCPTP Inhibition Assay; settings: pH 6.3; 22 °C
T2 construct: 1-298
T2 sequence (P18031 whole entry): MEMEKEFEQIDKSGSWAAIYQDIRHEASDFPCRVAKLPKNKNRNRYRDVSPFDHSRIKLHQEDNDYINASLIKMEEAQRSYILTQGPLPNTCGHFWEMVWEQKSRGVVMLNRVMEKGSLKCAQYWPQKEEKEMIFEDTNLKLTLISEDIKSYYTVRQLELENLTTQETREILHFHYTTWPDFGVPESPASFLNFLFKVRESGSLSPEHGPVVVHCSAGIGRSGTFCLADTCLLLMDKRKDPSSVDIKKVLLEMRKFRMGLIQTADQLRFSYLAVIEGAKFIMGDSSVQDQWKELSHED

Question: O=P(O)(O)C(F)(F)c1ccc(CC(Cc2ccc(C(F)(F)P(=O)(O)O)cc2)(c2ccccc2)n2nnc3ccccc32)cc1 was tested. Which IC50 [1] did it give?
Answer: 11 nM

Question: Which IC50 [1] does the source give for Cc1ccc2cc(-c3ccc(CC(Cc4ccc(C(F)(F)P(=O)(O)O)cc4)(c4ccccc4)n4nnc5ccccc54)cc3)cc(P(=O)(O)O)c2n1 (centres undefined) here?
Answer: 20 nM

Question: Which IC50 [2] does the source give for CC(C)CCOc1ccc(-c2ccc(CC(Cc3ccc(C(F)(F)P(=O)(O)O)cc3)(c3ccccc3)n3nnc4ccccc43)cc2)cc1P(=O)(O)O (centres undefined) [5-{4-[2-(1H-1,2,3-benzotriazol-1-yl)-3-{4-[difluoro(phosphono)methyl]phenyl}-2-phenylpropyl]phenyl}-2-(3-methylbutoxy)benzene-1-phosphonic acid] here?
Answer: 6 nM

Question: What about the IC50 [1] of the same molecule?
Answer: 20 nM

Question: COc1ccc(-c2ccc(CC(Cc3ccc(C(F)(F)P(=O)(O)O)cc3)(c3ccccc3)n3nnc4ccccc43)cc2)cc1P(=O)(O)O (centres undefined) [5-{4-[2-(1H-1,2,3-benzotriazol-1-yl)-3-{4-[difluoro(phosphono)methyl]phenyl}-2-phenylpropyl]phenyl}-2-methoxybenzene-1-phosphonic acid] was tested. Which IC50 [2] did it give?
Answer: 10 nM

Question: What about the IC50 [1] of the same molecule?
Answer: 31 nM

Question: Which results are given for CC(C)CC(O)c1ccc2cc(-c3ccc(CC(Cc4ccc(C(F)(F)P(=O)(O)O)cc4)(c4ccccc4)n4nnc5ccccc54)cc3)cc(P(=O)(O)O)c2n1 (centres undefined) [6-{4-[2-(1H-1,2,3-benzotriazol-1-yl)-3-{4-[difluoro(phosphono)methyl]phenyl}-2-phenylpropyl]phenyl}-2-(1-hydroxy-3-methylbutyl)quinoline-8-phosphonic acid]?
Answer: IC50 [2]: 6 nM; IC50 [1]: 17 nM

Question: With COC(CC(C)C)c1ccc2cc(-c3ccc(CC(Cc4ccc(C(F)(F)P(=O)(O)O)cc4)(c4ccccc4)n4nnc5ccccc54)cc3)cc(P(=O)(O)O)c2n1 (centres undefined) [6-{4-[2-(1H-1,2,3-benzotriazol-1-yl)-3-{4-[difluoro(phosphono)methyl]phenyl}-2-phenylpropyl]phenyl}-2-(1-methoxy-3-methylbutyl)quinoline-8-phosphonic acid] as the molecule, how does the IC50 [1] read?
Answer: 36 nM

Question: COCOC(CC(C)C)c1ccc2cc(-c3ccc(CC(Cc4ccc(C(F)(F)P(=O)(O)O)cc4)(c4ccccc4)n4nnc5ccccc54)cc3)cc(P(=O)(O)O)c2n1 (centres undefined) [6-{4-[2-(1H-1,2,3-benzotriazol-1-yl)-3-{4-[difluoro(phosphono)methyl]phenyl}-2-phenylpropyl]phenyl}-2-[1-(methoxymethoxy)-3-methylbutyl]quinoline-8-phosphonic acid] was tested. Which IC50 [2] did it give?
Answer: 11 nM

Question: What about the IC50 [1] of the same molecule?
Answer: 21 nM

Question: Which results are given for O=P(O)(O)C(F)(F)c1ccc(CC(Cc2ccc(-c3ccccc3)cc2)(c2ccccc2)n2nnc3ccccc32)cc1 (centres undefined) [({4-[2-(1H-1,2,3-benzotriazol-1-yl)-2-phenyl-3-(4-phenylphenyl)propyl]phenyl}difluoromethyl)phosphonic acid]?
Answer: IC50 [2]: 38 nM; IC50 [1]: 24 nM

Question: Which IC50 [2] does the source give for O=P(O)(O)C(F)(F)c1ccc(C[C@H](c2ccccc2)n2nnc3ccccc32)cc1 [({4-[(2R)-2-(1H-1,2,3-benzotriazol-1-yl)-2-phenylethyl]phenyl}difluoromethyl)phosphonic acid] here?
Answer: 8040 nM
